The subject of data set [1] is Jurkat T cells. Kind of data set: Apoptosis of Jurkat T cells (Annexin V / PI). Type of data set: cell-based. As to conditions: 100 nM HF, 30 hours. How it is done: The non-specific cytoxicity of HF in both normal and transformed T-cells at high doses was evaluated. Anti-CD3/anti-CD28 activated primary T cells were harvested 6 days after activation and cultured in the presence of IL-2 with or without HF (100 nM). As a positive control, some T cells were cultured without IL-2 to induce apoptosis (FIG. 3A). Jurkat T cells, a transformed T cell leukemia line, were cultured in complete medium with or without HF (100 nM) as indicated (FIG. 3B). Both primary and Jurkat T cells were cultured for 30 hours and programmed cell death, i.e. apoptosis, was determined by Annexin V staining and propidium iodide (PI) uptake and cells were analyzed by flow cytometry. The percent of apoptotic T cells at each time point was plotted and was defined as Annexin V^+ PI^−. […] In further experiments, titrating amounts of HF were added to primary T cells and apoptosis was determine as above at the indicated time points. At 100 nM HF, but not 30 nM or lower, generalized T-cell apoptosis was observed (FIG. 3C).

In data set [2] the test system is fibrosis. The conditions noted are these: Pines et al.; cited from earlier work.
Data set [3] concerns TSK mouse. As to conditions: 1 μg HF/mouse IP daily (McGaha et al.); cited from earlier work.
Data set [4] concerns human memory T cells (CD4+ CD45RO+). The experiment in a line: IL-17 and IFNγ expression by human memory T cells co-cultured with monocytes. The format is cell-based. As to conditions: 100 nM HF, 6 days. Here is the method: FIG. 10F is an illustration depicting purified primary human memory T cells (CD4^+ CD45RO^+) activated by anti-CD3/anti-CD28 coated beads in co-culture with CD14^+ monocytes and treated with DMSO, 100 nM HF or 100 nM MAZ1310. T cells were expanded for 6 days and intracellular cytokine expression was determined following restimuation with PMA plus ionomycin in the presence of brefeldin A.
Human T cell isolation and activation: Resting CD4^+ T cells were isolated from PBMC of healthy human donors using Dynal CD4 Positive Isolation Kit (Invitrogen, Carlsbad, Calif.) as previously described (M. Sundrud et al., Blood 106, 3440, 2005). CD4^+ cells were further purified to obtain memory T cells by staining with PE-conjugated anti-human CD45RO-PE antibodies (BD Biosciences), and sorting on a FACSAria cytometer (BD Biosciences). Following purification, cells were greater than 99% CD4^+ CD45RO^+. […] T cells were expanded in the presence HF or MAZ1310 as indicated for 6 days and intracellular cytokine expression was determined by intracellular staining.
Detection of cytokine production: Cytokines secreted into media supernatant were measured using the mouse Th1/Th2 cytometric bead array (CBA, BD Pharmingen) in accordance with manufacturers instructions. […]

Consider 1 molecule from patent publication US20110212100A1, “METHODS FOR MODULATING DEVELOPMENT AND EXPANSION OF IL-17 EXPRESSING CELLS” (priority 2007, published 2011).

The structures appear in SMILES notation.

Consider `O=C(CC1NCCCC1O)Cn1cnc2cc(Br)c(Cl)cc2c1=O` (racemic) [HF, 7-bromo-6-chloro-3-[3-(3-hydroxy-2-piperidinyl)-2-oxopropyl]-4(3H)-quinazolinone], for which the “apoptosis (Annexin V+ PI−) of Jurkat T cells, in words” value in data set [1] is “caused significant apoptosis”. In addition, the “concentration range for inhibition of fibrosis in vitro” value in data set [2] is 1 to 200 nM. In data set [3], the “skin thickness in TSK model, in words” value is “reduced skin thickness of a TSK mouse to that of a normal mouse” and the “toxic effects in TSK model, in words” value is “no toxic effects”. Also, in data set [4], the “IFNγ expression by human T cells, in words” value is on record as “essentially unaffected”; the “percentage of human T cells expressing IL-17 and amount of IL-17 produced, in words” value is recorded as “greatly reduced”.
